Assay results taken from patent US12433510B2, “Methods and systems for improved collection of interstitial fluid” (Georgia Tech Research Corporation, priority 2017, dated 2025).
Where two headings read alike, the source gives them in different places.

Key:
[1] = tested on: plasma proteins
[2] = human, in vivo
[3] = clinical; settings: human, in vivo
[4] = in vivo; settings: female, Wistar, rat, 1 mg/kg; for AUC: mean ± SD, n = 6 rats
[5] = iv, ISF, 1 mg/kg bolus intravenous
[6] = iv, Serum, 1 mg/kg bolus intravenous

CCN=c1cc2oc3cc(NCC)c(C)cc3c(-c3ccccc3C(=O)OCC)c-2cc1C.Cl [R6G, rhodamine 6G]
R6G concentration in protein-free serum samples [1]: 0.05 ± 0.03 µM
R6G concentration in serum prior to filtration [1]: 9.6 ± 4.2 µM
binding to plasma proteins [1]: strongly binds to plasma proteins

Cn1c(=O)c2c(ncn2C)n(C)c1=O [caffeine]
CL [2]: 4.7 L/h
t1/2 [2]: 450 min
Cmax ([2]; 43 mg): 1030 ng/mL
Cmax ([3]; 43 mg, Cmax): 1060 ng/mL
AUC(0-t) ([3]; AUC(0-8 h)): 84 ng·h/mL
clearance ([3]; CL): 68.3 mL/min
half-life ([3]; t1/2): 564 min

CN[C@H](CC(C)C)C(=O)N[C@H]1C(=O)N[C@@H](CC(N)=O)C(=O)N[C@H]2C(=O)N[C@H]3C(=O)N[C@H](C(=O)N[C@H](C(=O)O)c4cc(O)cc(O)c4-c4cc3ccc4O)[C@H](O)c3ccc(c(Cl)c3)Oc3cc2cc(c3O[C@@H]2O[C@H](CO)[C@@H](O)[C@H](O)[C@H]2O[C@H]2C[C@](C)(N)[C@H](O)[C@H](C)O2)Oc2ccc(cc2Cl)[C@H]1O [vancomycin]
Tmax Ratio (ISF:serum) (1 mg/kg bolus intravenous): 2.7 ± 1.6
slope of linear correlation of paired ISF and serum drug levels (R2=0.40): 0.75±0.06
Tmax ([4]; delay in time to peak concentration (Tmax) in ISF compared to serum): ~17 min
Kp ([4]; iv, AUC Ratio (ISF:serum), 1 mg/kg bolus intravenous): 1.3 ± 0.2
AUC [4, 5]: 2300 ng·h/mL
AUC [4, 6]: 1770 ng·h/mL
Kp ([4]; iv, Cmax Ratio (ISF:serum), 1 mg/kg bolus intravenous): 0.9 ± 0.2
Cmax [4, 5]: 2500 ± 1000 ng/mL
Cmax [4, 6]: 2600 ± 600 ng/mL
Tmax ([4]; iv, Tmax, ISF, 1 mg/kg bolus intravenous): 26.6 min
Tmax ([4]; iv, Tmax, Serum, 1 mg/kg bolus intravenous): 10 min
